Assay results taken from ChEMBL document CHEMBL3991601, “The target landscape of clinical kinase drugs” (Science, 2017).
Activity calls are given as the source filed them. Rule as the data show it, for most assays here: actives have a measured Kd and inactives only a lower limit.

Columns and labels:
[1] = biological target: T1, Beta-adrenergic receptor kinase 1 (Homo sapiens, UniProt P25098)
T1 sequence (P25098 whole entry): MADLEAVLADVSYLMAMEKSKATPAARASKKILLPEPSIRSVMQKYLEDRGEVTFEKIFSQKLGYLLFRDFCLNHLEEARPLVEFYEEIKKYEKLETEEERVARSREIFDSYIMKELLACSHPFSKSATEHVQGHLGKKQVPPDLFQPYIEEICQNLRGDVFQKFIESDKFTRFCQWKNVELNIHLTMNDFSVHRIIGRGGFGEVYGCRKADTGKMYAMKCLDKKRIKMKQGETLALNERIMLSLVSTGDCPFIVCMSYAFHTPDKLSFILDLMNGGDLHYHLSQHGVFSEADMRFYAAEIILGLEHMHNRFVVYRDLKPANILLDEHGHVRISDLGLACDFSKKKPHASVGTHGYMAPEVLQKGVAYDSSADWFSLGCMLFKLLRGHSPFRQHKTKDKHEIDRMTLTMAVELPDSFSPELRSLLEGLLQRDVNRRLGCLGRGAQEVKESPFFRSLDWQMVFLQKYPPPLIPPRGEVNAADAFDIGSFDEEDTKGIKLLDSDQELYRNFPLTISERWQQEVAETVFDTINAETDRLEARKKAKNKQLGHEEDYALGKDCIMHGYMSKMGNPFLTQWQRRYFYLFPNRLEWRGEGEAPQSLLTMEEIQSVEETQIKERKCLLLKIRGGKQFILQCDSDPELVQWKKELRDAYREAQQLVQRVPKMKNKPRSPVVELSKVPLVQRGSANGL

[2] = biological target: T2, Discoidin domain-containing receptor 2 (Homo sapiens, UniProt Q16832)
T2 sequence (Q16832 whole entry): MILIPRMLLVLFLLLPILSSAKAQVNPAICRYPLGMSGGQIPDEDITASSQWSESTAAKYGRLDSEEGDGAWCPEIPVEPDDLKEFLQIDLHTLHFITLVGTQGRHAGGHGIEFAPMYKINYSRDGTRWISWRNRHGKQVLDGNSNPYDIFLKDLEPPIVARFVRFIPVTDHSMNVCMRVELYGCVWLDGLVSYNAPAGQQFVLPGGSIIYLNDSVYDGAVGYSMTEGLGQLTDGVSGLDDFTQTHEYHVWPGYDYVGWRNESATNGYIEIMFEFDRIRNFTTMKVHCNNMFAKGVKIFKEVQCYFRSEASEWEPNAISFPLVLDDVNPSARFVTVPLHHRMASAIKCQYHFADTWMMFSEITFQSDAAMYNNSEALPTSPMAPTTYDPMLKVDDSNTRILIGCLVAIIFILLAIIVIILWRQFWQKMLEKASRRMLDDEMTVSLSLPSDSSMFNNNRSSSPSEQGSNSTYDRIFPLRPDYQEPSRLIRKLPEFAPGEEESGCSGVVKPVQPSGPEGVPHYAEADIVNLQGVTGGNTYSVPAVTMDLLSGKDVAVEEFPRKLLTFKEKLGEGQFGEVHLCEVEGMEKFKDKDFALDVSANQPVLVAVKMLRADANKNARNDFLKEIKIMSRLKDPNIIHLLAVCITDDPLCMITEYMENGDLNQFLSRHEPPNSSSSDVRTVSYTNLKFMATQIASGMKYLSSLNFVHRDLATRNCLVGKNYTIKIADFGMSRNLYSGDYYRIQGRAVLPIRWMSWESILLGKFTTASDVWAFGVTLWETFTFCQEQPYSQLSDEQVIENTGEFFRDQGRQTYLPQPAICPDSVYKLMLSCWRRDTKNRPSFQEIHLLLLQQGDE

[3] = biological target: Tyrosine-protein kinase JAK1 (Homo sapiens, UniProt P23458)
Chain of Tyrosine-protein kinase JAK1 (P23458 whole entry): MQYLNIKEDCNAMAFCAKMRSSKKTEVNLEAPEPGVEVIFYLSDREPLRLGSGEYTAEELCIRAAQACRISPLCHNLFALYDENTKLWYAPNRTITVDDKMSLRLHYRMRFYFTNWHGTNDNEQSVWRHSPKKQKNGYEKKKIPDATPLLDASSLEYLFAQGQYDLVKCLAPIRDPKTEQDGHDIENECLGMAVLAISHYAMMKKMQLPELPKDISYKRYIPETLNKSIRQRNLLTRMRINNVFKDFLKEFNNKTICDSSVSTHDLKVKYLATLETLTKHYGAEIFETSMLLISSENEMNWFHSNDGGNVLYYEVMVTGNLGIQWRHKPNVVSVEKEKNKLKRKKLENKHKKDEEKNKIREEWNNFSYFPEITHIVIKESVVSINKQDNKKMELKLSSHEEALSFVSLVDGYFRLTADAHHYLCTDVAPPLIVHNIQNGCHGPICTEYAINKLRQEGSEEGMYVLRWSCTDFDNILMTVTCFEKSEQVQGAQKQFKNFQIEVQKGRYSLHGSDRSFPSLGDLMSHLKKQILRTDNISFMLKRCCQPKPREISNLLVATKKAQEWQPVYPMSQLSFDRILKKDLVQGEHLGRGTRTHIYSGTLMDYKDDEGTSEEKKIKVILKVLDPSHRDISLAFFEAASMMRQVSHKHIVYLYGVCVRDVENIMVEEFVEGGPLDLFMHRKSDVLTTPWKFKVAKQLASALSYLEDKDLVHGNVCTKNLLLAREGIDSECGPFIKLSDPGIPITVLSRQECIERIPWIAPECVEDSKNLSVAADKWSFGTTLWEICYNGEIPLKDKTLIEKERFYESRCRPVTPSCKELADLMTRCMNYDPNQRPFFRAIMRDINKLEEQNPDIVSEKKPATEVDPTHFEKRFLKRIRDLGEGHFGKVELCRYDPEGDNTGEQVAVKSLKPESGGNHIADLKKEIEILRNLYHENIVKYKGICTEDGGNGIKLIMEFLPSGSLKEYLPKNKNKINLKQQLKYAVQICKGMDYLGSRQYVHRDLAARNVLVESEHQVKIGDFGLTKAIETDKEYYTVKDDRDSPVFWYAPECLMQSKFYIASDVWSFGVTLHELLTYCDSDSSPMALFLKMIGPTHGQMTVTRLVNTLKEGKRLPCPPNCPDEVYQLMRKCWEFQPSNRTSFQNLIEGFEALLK

[4] = biological target: Serine/threonine-protein kinase PAK 4 (Homo sapiens, UniProt O96013)
Chain of Serine/threonine-protein kinase PAK 4 (O96013 whole entry): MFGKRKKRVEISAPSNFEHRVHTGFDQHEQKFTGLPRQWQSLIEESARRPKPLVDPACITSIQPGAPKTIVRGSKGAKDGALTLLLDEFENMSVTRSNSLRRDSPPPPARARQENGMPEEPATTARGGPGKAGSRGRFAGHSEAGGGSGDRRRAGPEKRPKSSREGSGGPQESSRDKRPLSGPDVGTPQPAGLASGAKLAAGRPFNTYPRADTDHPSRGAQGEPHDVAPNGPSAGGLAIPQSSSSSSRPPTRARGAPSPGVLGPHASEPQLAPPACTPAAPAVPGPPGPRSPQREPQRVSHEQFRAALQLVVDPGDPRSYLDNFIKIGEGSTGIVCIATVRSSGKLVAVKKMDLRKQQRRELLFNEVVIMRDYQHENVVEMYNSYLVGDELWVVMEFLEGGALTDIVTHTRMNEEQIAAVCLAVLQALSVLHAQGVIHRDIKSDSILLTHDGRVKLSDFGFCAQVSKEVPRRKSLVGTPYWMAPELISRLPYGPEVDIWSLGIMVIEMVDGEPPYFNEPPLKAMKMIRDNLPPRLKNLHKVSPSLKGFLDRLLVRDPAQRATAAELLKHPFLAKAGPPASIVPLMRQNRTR

[5] = biological target: T3, Peroxisomal acyl-coenzyme A oxidase 1 (Homo sapiens, UniProt Q15067)
T3 sequence (Q15067 whole entry): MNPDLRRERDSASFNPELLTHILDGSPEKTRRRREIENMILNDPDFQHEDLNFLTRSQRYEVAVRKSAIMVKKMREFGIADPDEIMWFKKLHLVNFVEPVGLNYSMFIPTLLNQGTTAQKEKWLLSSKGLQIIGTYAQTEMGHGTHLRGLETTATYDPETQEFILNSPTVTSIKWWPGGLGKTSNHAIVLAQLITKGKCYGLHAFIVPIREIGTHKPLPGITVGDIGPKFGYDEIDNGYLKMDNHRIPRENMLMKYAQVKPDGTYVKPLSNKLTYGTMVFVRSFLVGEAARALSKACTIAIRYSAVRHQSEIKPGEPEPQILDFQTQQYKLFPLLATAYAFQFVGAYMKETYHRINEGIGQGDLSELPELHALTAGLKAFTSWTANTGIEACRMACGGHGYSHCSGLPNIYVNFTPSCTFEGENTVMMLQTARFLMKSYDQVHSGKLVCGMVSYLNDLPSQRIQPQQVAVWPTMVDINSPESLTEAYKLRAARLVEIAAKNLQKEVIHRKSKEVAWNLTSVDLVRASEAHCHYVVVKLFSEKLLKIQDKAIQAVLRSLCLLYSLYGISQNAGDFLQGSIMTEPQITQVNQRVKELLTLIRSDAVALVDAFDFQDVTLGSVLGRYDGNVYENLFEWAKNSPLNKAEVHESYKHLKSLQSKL
Also: in the data inactive means no Kd found up to 30 µM.

Row | SMILES | Kd [1] | Kd [5] | Kd [2] | Kd [3] | Kd [4]
1 | C=CCn1c(=O)c2cnc(Nc3ccc(N4CCN(C)CC4)cc3)nc2n1-c1cccc(C(C)(C)O)n1 [ADAVOSERTIB] | > 30 µM (inactive) | > 30 µM (inactive) | > 30 µM (inactive) | > 30 µM (inactive) | 
2 | CN(C)C/C=C/C(=O)Nc1cc2c(Nc3ccc(F)c(Cl)c3)ncnc2cc1O[C@H]1CCOC1 [AFATINIB] | > 30 µM (inactive) | > 30 µM (inactive) |  |  | 
3 | CCOc1ccn(-c2ccc(F)cc2)c(=O)c1C(=O)Nc1ccc(Oc2ccnc(N)c2Cl)c(F)c1 [BMS-777607] | > 30 µM (inactive) |  | 0.065 µM (active) | > 30 µM (inactive) | > 30 µM (inactive)
4 | COc1cc2c(Oc3ccc4[nH]c(C)cc4c3F)ncnc2cc1OCCCN1CCCC1 [CEDIRANIB] | > 30 µM (inactive) | > 30 µM (inactive) |  |  | 
5 | CC1(COc2ccc3c(c2)ncn3-c2ccc3cccc(N4CCC(N)CC4)c3n2)COC1 [CRENOLANIB] | > 30 µM (inactive) | > 30 µM (inactive) | > 30 µM (inactive) | > 30 µM (inactive) | 
6 | CNC(=O)c1ccc(Nc2ncc(C(F)(F)F)c(NCc3nccnc3N(C)S(C)(=O)=O)n2)cc1 [DEFACTINIB] | > 30 µM (inactive) |  | > 30 µM (inactive) | > 30 µM (inactive) | 22 µM (active)
7 | CCc1nc(C(N)=O)c(Nc2ccc(N3CCC(N4CCN(C)CC4)CC3)c(OC)c2)nc1NC1CCOCC1 [GILTERITINIB] | > 30 µM (inactive) |  | > 30 µM (inactive) | > 30 µM (inactive) | > 30 µM (inactive)
8 | C[C@]1(O)C[C@@H](c2nc(-c3ccc4ccc(-c5ccccc5)nc4c3)c3c(N)nccn32)C1 [LINSITINIB] | > 30 µM (inactive) | > 30 µM (inactive) | > 30 µM (inactive) | > 30 µM (inactive) | 
9 | N#CCNC(=O)c1ccc(-c2ccnc(Nc3ccc(N4CCOCC4)cc3)n2)cc1 [MOMELOTINIB] | > 30 µM (inactive) |  | > 30 µM (inactive) |  | > 30 µM (inactive)
10 | CN(c1ncccc1CNc1nc(Nc2ccc3c(c2)CC(=O)N3)ncc1C(F)(F)F)S(C)(=O)=O [PF-00562271] | > 30 µM (inactive) | > 30 µM (inactive) | > 30 µM (inactive) | > 30 µM (inactive) | 
11 | COc1cc(F)c(F)c(Nc2ccc(I)cc2F)c1NS(=O)(=O)C1(C[C@H](O)CO)CC1 [REFAMETINIB] | > 30 µM (inactive) |  | > 30 µM (inactive) | > 30 µM (inactive) | > 30 µM (inactive)
12 | O=C(O)c1ccc2c(c1)nc(Nc1cccc(Cl)c1)c1ccncc12 [SILMITASERTIB] | > 30 µM (inactive) |  | > 30 µM (inactive) | > 30 µM (inactive) | > 30 µM (inactive)
13 | C=CCN(/C=C1/C(=O)O[C@H](COC)[C@@]2(C)C1=C(O)C(=O)C1=C2[C@H](OC(C)=O)C[C@]2(C)C(=O)CC[C@@H]12)CC=C [SONOLISIB] | > 30 µM (inactive) |  | > 30 µM (inactive) | > 30 µM (inactive) | > 30 µM (inactive)

Now from value to molecule, other results behind:

Row | Kd [1] | Kd [5] | SMILES | Kd [2] | Kd [3] | Kd [4]
14 | > 30 µM (inactive) |  | CCN1CCN(Cc2ccc(Nc3ncc(F)c(-c4cc(F)c5nc(C)n(C(C)C)c5c4)n3)nc2)CC1 [ABEMACICLIB] | > 30 µM (inactive) | > 30 µM (inactive) | > 30 µM (inactive)
15 | > 30 µM (inactive) | > 30 µM (inactive) | CCN(CCCOc1ccc2c(Nc3cc(CC(=O)Nc4cccc(F)c4)n[nH]3)ncnc2c1)CCOP(=O)(O)O [BARASERTIB] | > 30 µM (inactive) | > 30 µM (inactive) | 
16 | > 30 µM (inactive) | > 30 µM (inactive) | Cn1c(=O)n(-c2ccc(C(C)(C)C#N)cc2)c2c3cc(-c4cnc5ccccc5c4)ccc3ncc21 [DACTOLISIB] |  | > 30 µM (inactive) | 
17 | > 30 µM (inactive) | > 30 µM (inactive) | CC1(C)CNc2cc(NC(=O)c3cccnc3NCc3ccncc3)ccc21 [MOTESANIB] |  |  | 
18 | > 30 µM (inactive) | > 30 µM (inactive) | Cn1cnc2c(F)c(Nc3ccc(Br)cc3Cl)c(C(=O)NOCCO)cc21 [SELUMETINIB] |  |  | 
19 | > 30 µM (inactive) | > 30 µM (inactive) | COc1cc2c(N3CCN(C(=O)Nc4ccc(OC(C)C)cc4)CC3)ncnc2cc1OCCCN1CCCCC1 [TANDUTINIB] |  |  | 
